# US9745246B2, “Method for preparing a salt of acetylsalicylic acid and a basic amino acid” (UNITHER PHARMACEUTICALS, priority 2014, dated 2017)
# What was measured:
# [1] = Stability study, Experiment 1: dry product stored at 5° C. under inert atmosphere in the dark for 3 months; assay type: physicochemical; conditions: storage 5° C.; for Stability over time: 3 months
# Method: (§1) The analysis by HPLC is carried out according to the method of the European Pharmacopeia 2.2.29, as indicated below.
# (§2) Residual moisture content: halogen loss on desiccation in a desiccator 5 g/90° C./20 min.
# (§3) Water content: according to European Pharmacopeia 2.5.12, titration carried out by Karl Fisher titration on 1 g of ASL.
# (§4) according to European Pharmacopeia 2.2.3, a solution is reconstituted by dissolving 1 g of ASL in 10 ml of water free of carbon dioxide, with stirring for 30 s. Its appearance is evaluated and its pH is measured.
# (§5) Content of each unknown impurity: by HPLC assay, according to the operating protocol described above. The content of each impurity is determined by means of the following equation: […]
# A study of stability of the product obtained in example 1 is carried out by storing the dry product under an inert atmosphere and in the dark, at a temperature of 5° C., for a period of 3 months.
# At times T=0, T=1 month and T=3 months, a sample of product is taken and subjected to all the tests described in example 2.
# By way of comparative example, the same experiment is carried out on a product obtained by means of the preparation process of the prior art described in document WO 2011/039432, providing in particular a molar deficiency in DL-lysine (more specifically, with an acetylsalicylic acid/DL lysine molar ratio equal to 1/0.89).
# [2] = Stability study, Experiment 2: dry product (new synthesis batch) stored at 5° C. under inert atmosphere in the dark for 6 months; assay type: physicochemical; set-up: key to Appearance of the powder / Appearance of the reconstituted solution: C = complies; conditions: storage 5° C.
# Method: as §1, §2, §3, §4, §5
# A study of stability of the product obtained in example 1 (new synthesis batch) is carried out by storing the dry product under an inert atmosphere and in the dark, at a temperature of 5° C., for a period of 6 months.
# At times T=0, T=1 month, T=3 months and T=6 months, a sample of product is taken and subjected to all the tests described in example 2.
# [3] = time 0 months, listed as Method in accordance with the invention
# [4] = time 1 month, listed as Method in accordance with the invention
# [5] = time 3 months, listed as Method in accordance with the invention
substance,measurement,setting,value
"DL-lysine acetylsalicylate [Process of WO 2011/039432, reference compound]",Stability over time,[1]; listed as product obtained by means of a process of the prior art,much less stability over time
same,HPLC content of acetylsalicylic acid (%),[1]; time 0 months,93.6%
same,Impurities (%): Salicylic acid,[1]; time 0 months,1.9%
same,Residual moisture content (%),[1]; time 0 months,0.72%
same,pH of the reconstituted solution,[1]; time 0 months,5.2
same,HPLC content of acetylsalicylic acid (%),[1]; time 1 month,90.0%
same,Impurities (%): Other unknown impurity,[1]; time 1 month,0.026%
same,Impurities (%): Salicylic acid,[1]; time 1 month,1.9%
same,Impurities (%): Sum of the impurities,[1]; time 1 month,0.09%
same,Residual moisture content (%),[1]; time 1 month,0.61%
same,pH of the reconstituted solution,[1]; time 1 month,5.2
same,HPLC content of acetylsalicylic acid (%),[1]; time 3 months,91.6%
same,Impurities (%): Other unknown impurity,[1]; time 3 months,0.027%
same,Impurities (%): Salicylic acid,[1]; time 3 months,2.0%
same,Impurities (%): Sum of the impurities,[1]; time 3 months,0.07%
same,Residual moisture content (%),[1]; time 3 months,0.61%
same,pH of the reconstituted solution,[1]; time 3 months,5.1
DL-lysine acetylsalicylate [ASL],Stability over time,[1]; listed as product obtained by means of the method in accordance with the invention of exam,remains stable over time
same,Impurities (%): Other unknown impurity,[1]; time 0 months,0.02%
same,Impurities (%): Sum of the impurities,[1]; time 0 months,0.15%
same,Water content (%),[1]; time 0 months,0.4%
same,HPLC content of acetylsalicylic acid (%),[1]; [3],98.3%
same,Impurities (%): Salicylic acid,[1]; [3],0.13%
same,Residual moisture content (%),[1]; [3],0.4%
same,pH of the reconstituted solution,[1]; [3],5.9
same,Water content (%),[1]; time 1 month,0.5%
same,HPLC content of acetylsalicylic acid (%),[1]; [4],98.5%
same,Impurities (%): Other unknown impurity,[1]; [4],0.02%
same,Impurities (%): Salicylic acid,[1]; [4],0.17%
same,Impurities (%): Sum of the impurities,[1]; [4],0.22%
same,Residual moisture content (%),[1]; [4],0.6%
same,pH of the reconstituted solution,[1]; [4],5.6
same,Water content (%),[1]; time 3 months,0.3%
same,HPLC content of acetylsalicylic acid (%),[1]; [5],98.8%
same,Impurities (%): Other unknown impurity,[1]; [5],0.02%
same,Impurities (%): Salicylic acid,[1]; [5],0.21%
same,Impurities (%): Sum of the impurities,[1]; [5],0.25%
same,Residual moisture content (%),[1]; [5],0.6%
same,pH of the reconstituted solution,[1]; [5],5.5
same,Stability over time,[2]; 6 months,remains stable over time
same,Appearance of the powder,[2]; time 0 months,C
same,Appearance of the reconstituted solution,[2]; time 0 months,C
same,HPLC content of acetylsalicylic acid (%),[2]; time 0 months,97.5%
same,Impurities (%): Other unknown impurity,[2]; time 0 months,0.03%
same,Impurities (%): Salicylic acid,[2]; time 0 months,0.28%
same,Impurities (%): Sum of the impurities,[2]; time 0 months,0.32%
same,Residual moisture content (%),[2]; time 0 months,0.7%
same,Water content (%),[2]; time 0 months,0.4%
same,pH of the reconstituted solution,[2]; time 0 months,5.7
same,Appearance of the powder,[2]; time 1 month,C
same,Appearance of the reconstituted solution,[2]; time 1 month,C
same,HPLC content of acetylsalicylic acid (%),[2]; time 1 month,97.5%
same,Impurities (%): Other unknown impurity,[2]; time 1 month,0.03%
same,Impurities (%): Salicylic acid,[2]; time 1 month,0.28%
same,Impurities (%): Sum of the impurities,[2]; time 1 month,0.33%
same,Residual moisture content (%),[2]; time 1 month,0.5%
same,Water content (%),[2]; time 1 month,0.3%
same,pH of the reconstituted solution,[2]; time 1 month,5.8
same,Appearance of the powder,[2]; time 3 months,C
same,Appearance of the reconstituted solution,[2]; time 3 months,C
same,HPLC content of acetylsalicylic acid (%),[2]; time 3 months,98.1%
same,Impurities (%): Other unknown impurity,[2]; time 3 months,0.03%
same,Impurities (%): Salicylic acid,[2]; time 3 months,0.29%
same,Impurities (%): Sum of the impurities,[2]; time 3 months,0.33%
same,Residual moisture content (%),[2]; time 3 months,0.6%
same,Water content (%),[2]; time 3 months,0.3%
same,pH of the reconstituted solution,[2]; time 3 months,5.4
same,Appearance of the powder,[2]; time 6 months,C
same,Appearance of the reconstituted solution,[2]; time 6 months,C
same,HPLC content of acetylsalicylic acid (%),[2]; time 6 months,97.5%
same,Impurities (%): Other unknown impurity,[2]; time 6 months,0.03%
same,Impurities (%): Salicylic acid,[2]; time 6 months,0.30%
same,Impurities (%): Sum of the impurities,[2]; time 6 months,0.34%
same,Residual moisture content (%),[2]; time 6 months,0.6%
same,Water content (%),[2]; time 6 months,0.3%
same,pH of the reconstituted solution,[2]; time 6 months,6.3
